{
  "source": "patent US20080081041A1",
  "about": "(priority 2006, published 2008)",
  "molecules": {"B1": {"name": "CNTO 328: an anti-IL-6 monoclonal antibody, derived from the CLB-8 anti-IL-6 antibody (antibody, chains of the INN, looked up, V domains shown)", "VH": "EVQLVESGGKLLKPGGSLKLSCAASGFTFSSFAMSWFRQSPEKRLEWVAEISSGGSYTYYPDTVTGRFTISRDNAKNTLYLEMSSLRSEDTAMYYCARGLWGYYALDYWGQGTSVTVSS", "VL": "QIVLIQSPAIMSASPGEKVTMTCSASSSVSYMYWYQQKPGSSPRLLIYDTSNLASGVPVRFSGSGSGTSYSLTISRMEAEDAATYYCQQWSGYPYTFGGGTKLEIK"}},
  "key": {"metastatic HRPC": {"system": "metastatic HRPC", "details": "docetaxel every 3 weeks; cited from earlier work"}, "DU145 cells": {"system": "DU145 cells", "experiment": "DU145 cell killing, ATPlite assay (ATP production)", "type": "cell-based, human", "details": "for effect on sensitivity / resistance of the cells to mitoxantrone / timecourse of cell killing / EC50: DU145 cells; for effect on sensitivity / resistance of the cells to mitoxantrone: 48 and 72 hour timepoints; for EC50: Homo sapiens, DU-145, read-out: EC50 values for killing by Mitoxantrone, CNTO 328 at 20 μg/mL where combined", "description": "DU145 cells were established from a metastatic central nervous system lesion of androgen-independent prostate carcinoma (Stone, K. R. et al. 1978 Int J Cancer 21: 274-81). […] Thus, study of direct interactions of chemotherapy agents and IL6 modulators can be studied on prostate tumor cells in vitro.\nDU145 cells were plated at 500 cells/well in a 96 well plate and allowed to adhere for several hours. Treatments were added and plates were incubated at 37° C. for either 24, 48, or 72 hours. […] CNTO 328 was tested at 20 μg/mL and IL-6 was tested at both 10 and 50 ng/mL. Plates were analyzed for ATP production using the ATPlite assay from Perkin Elmer."}, "[1]": {"system": "DU-145 human prostate xenograft", "experiment": "DU-145 human prostate xenograft in nude mice, time to tumor volume of 1000 mm3", "type": "in vivo", "details": "for % TGD (tumor growth delay): [(T-C)/C]×100, versus PBS Group 1; for tumor growth delay vs. control (in words): monotherapy versus Group 1; for T-C (difference between median TTE of treated versus control group): same dosing, versus PBS Group 1; for Median TTE: time to tumor volume 1000 mm3, CNTO328 10 mg/Kg i.p. biweekly, Mitoxantrone 0.75 mg/Kg i.v. once per D for 5 D, n=8", "text": "Nude mice were implanted subcutaneously with 1 mm3 fragments of DU-145 human prostate xenograft tissue. […] Dosing was initiated on Day 1 as follows: […] The study endpoint was the time taken for tumors to reach a volume of 1000 mm3 at which time each animal was euthanized. Days in Progress=56. Calculation using the TTE=time to endpoint are: T−C=difference between median TTE (days) of treated versus control group, TGD=tumor growth delay. % TGD=[(T-C)/C]×100. The Logrank test was used to analyze the significance of the differences between the TTE values of treated and control groups. Two-tailed statistical analyses were conducted at significance level P-0.05. Statistical Significance: ns=not significant, **=P<0.01 compared to group indicated."}, "human prostate tumor": {"system": "human prostate tumor", "details": "human prostate tumor-bearing mice; cited from earlier work"}},
  "note": "Read-outs that look alike come from different tables or passages of the source.",
  "data": [
    {"molecule": "CC(=O)O[C@@]12CO[C@@H]1C[C@H](O)[C@@]1(C)C(=O)[C@H](O)C3=C(C)[C@@H](OC(=O)[C@H](O)[C@@H](NC(=O)OC(C)(C)C)c4ccccc4)C[C@@](O)([C@@H](OC(=O)c4ccccc4)[C@H]21)C3(C)C", "note": "[docetaxel]", "values": [
      {"measurement": "improvement of survival over the reference M/P regimen", "setting": "metastatic HRPC", "result": "2-2.5 months"}
    ]},
    {"molecule": "IL-6: 22-27 kDa secreted glycoprotein cytokine, added exogenously", "values": [
      {"measurement": "effect on sensitivity / resistance of the cells to mitoxantrone", "setting": "DU145 cells", "result": "did not increase resistance to the effect of mitoxantrone"}
    ]},
    {"molecule": "O=C1c2c(O)ccc(O)c2C(=O)c2c(NCCNCCO)ccc(NCCNCCO)c21", "note": "[Mitoxantrone, 1,4-Dihydroxy-5,8-bis[[2-[(2-hydroxyethyl)amino]ethyl]amino]-9,10-anthracenedione]", "values": [
      {"measurement": "timecourse of cell killing", "setting": "DU145 cells; 48 and 72 hours (FIG. 1)", "result": "greatest reduction in cell survival"},
      {"measurement": "timecourse of cell killing", "setting": "DU145 cells; 24 hours (FIG. 1)", "result": "minimal cell death"},
      {"measurement": "EC50", "setting": "DU145 cells; 48 Hours", "result": 23, "unit": "nM"},
      {"measurement": "EC50", "setting": "DU145 cells; 72 Hours", "result": 10.8, "unit": "nM"},
      {"measurement": "% TGD (tumor growth delay)", "setting": "[1]", "result": 29, "unit": "%"},
      {"measurement": "mean body weight nadir", "setting": "[1]; day 10", "result": "−5", "unit": "%"},
      {"measurement": "tumor growth delay vs. control (in words)", "setting": "[1]", "result": "no significant tumor growth delay"},
      {"measurement": "T-C (difference between median TTE of treated versus control group)", "setting": "[1]", "result": 6.2, "unit": "days"},
      {"measurement": "Median TTE", "setting": "[1]", "result": 27.7, "unit": "days"}
    ]},
    {"molecule": "B1", "values": [
      {"measurement": "effect on sensitivity / resistance of the cells to mitoxantrone", "setting": "DU145 cells", "result": "does not significantly alter the sensitivity of the cells to mitoxantrone"},
      {"measurement": "proliferation of the DU145 cells", "setting": "DU145 cells; agent alone (not shown)", "result": "ineffective at reducing proliferation"},
      {"measurement": "% TGD (tumor growth delay)", "setting": "[1]", "result": "−21", "unit": "%"},
      {"measurement": "tumor growth delay vs. control (in words)", "setting": "[1]", "result": "no significant tumor growth delay"},
      {"measurement": "T-C (difference between median TTE of treated versus control group)", "setting": "[1]", "result": -4.6, "unit": "days"},
      {"measurement": "Median TTE", "setting": "[1]", "result": 16.9, "unit": "days"},
      {"measurement": "effect of monotherapy on tumor and survival", "setting": "human prostate tumor", "result": "block conversion to androgen independent growth, induce tumor apoptosis, and prolong survival"}
    ]}
  ]
}
